Calls of active or inactive are those of the source. The calls are words filed in the database; no cut-off is given here.
How the values were obtained:
[1] = system: PC-12; test: Neuroprotective activity against Amyloid beta(25 to 35)-induced cell injury in rat PC12 cells assessed as cell viability at 20 uM pretreated for 2 hrs followed by incubation with Abeta(25 to 35) for 24 hrs by CCK-8 assay (reference value: 41 to 58.6%); assay type: functional; details: time 26 hrs, read-out: Activity
[2] = system: PC-12; test: Cytotoxicity against rat PC-12 cells assessed as cell viability at 40 uM by CCK-8 assay; assay type: toxicity, cell-based; details: pc-12, 40 µM
[3] = Metal chelating activity assessed as compound-Cu2+ complex formation by measuring small fiber aggregates incubated for 24 hrs by transmission electron microscopy
[4] = Metal chelating activity assessed as compound-Cu2+ complex formation by measuring inhibition of Cu2+-induced amyloid beta (1 to 42) aggregation at 25 uM by thioflavin T-based fluorescence analysis
[5] = system: PC-12; test: Neuroprotective activity against Amyloid beta(25 to 35)-induced cell injury in rat PC12 cells assessed as cell viability at 5 uM pretreated for 2 hrs followed by incubation with Abeta(25 to 35) for 24 hrs by CCK-8 assay (reference value: 41 to 58.6%); assay type: functional; details: time 26 hrs, read-out: Activity
[6] = system: PC-12; test: Neuroprotective activity against Amyloid beta(25 to 35)-induced cell injury in rat PC12 cells assessed as cell viability at 10 uM pretreated for 2 hrs followed by incubation with Abeta(25 to 35) for 24 hrs by CCK-8 assay (reference value: 41 to 58.6%); assay type: functional; details: time 26 hrs, read-out: Activity
[7] = target: T1, Amine oxidase [flavin-containing] A (Homo sapiens, UniProt P21397); test: Inhibition of human recombinant MAO-A expressed in baculovirus-infected BTI cells using kynuramine as substrate at 62.5 uM incubated for 30 mins by fluorescence based analysis; details: 0.5 h
T1 sequence (P21397 whole entry): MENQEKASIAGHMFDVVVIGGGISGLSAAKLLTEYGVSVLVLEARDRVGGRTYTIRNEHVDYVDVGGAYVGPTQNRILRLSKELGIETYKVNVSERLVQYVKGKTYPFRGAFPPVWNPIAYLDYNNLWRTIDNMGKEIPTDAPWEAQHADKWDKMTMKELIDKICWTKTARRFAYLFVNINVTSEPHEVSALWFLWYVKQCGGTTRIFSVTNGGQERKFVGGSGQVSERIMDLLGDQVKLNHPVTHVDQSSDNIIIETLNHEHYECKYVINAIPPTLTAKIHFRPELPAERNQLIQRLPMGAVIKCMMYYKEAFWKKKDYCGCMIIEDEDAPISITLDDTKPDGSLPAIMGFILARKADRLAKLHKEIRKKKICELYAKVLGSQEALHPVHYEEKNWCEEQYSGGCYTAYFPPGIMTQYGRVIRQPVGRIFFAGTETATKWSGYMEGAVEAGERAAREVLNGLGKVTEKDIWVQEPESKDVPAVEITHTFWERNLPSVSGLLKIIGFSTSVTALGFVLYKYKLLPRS

[8] = target: T2, Amine oxidase [flavin-containing] B (Homo sapiens, UniProt P27338); test: Inhibition of human recombinant MAO-B expressed in baculovirus-infected BTI cells using kynuramine as substrate incubated for 30 mins by fluorescence based analysis
T2 sequence (P27338 whole entry): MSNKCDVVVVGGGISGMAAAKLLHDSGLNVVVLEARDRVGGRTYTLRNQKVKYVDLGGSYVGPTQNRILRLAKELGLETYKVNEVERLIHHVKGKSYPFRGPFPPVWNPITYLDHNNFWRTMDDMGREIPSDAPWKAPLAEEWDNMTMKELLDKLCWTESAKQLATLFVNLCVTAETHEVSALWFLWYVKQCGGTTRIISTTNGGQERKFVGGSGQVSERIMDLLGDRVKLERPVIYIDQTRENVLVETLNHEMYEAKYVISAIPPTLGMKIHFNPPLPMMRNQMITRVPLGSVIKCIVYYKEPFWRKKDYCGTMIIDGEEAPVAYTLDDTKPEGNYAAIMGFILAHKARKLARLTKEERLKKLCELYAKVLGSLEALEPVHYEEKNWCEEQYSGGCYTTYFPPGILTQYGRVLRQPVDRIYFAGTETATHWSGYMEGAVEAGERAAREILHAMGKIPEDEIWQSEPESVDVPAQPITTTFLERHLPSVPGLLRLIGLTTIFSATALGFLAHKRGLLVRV

[9] = organism: Homo sapiens; test: Selectivity index, ratio of IC50 for inhibition of human recombinant MAO-A expressed in baculovirus-infected BTI cells to IC50 for inhibition of human recombinant MAO-B expressed in baculovirus-infected BTI cells
[10] = target: T1, Amine oxidase [flavin-containing] A; test: Inhibition of human recombinant MAO-A expressed in baculovirus-infected BTI cells using kynuramine as substrate incubated for 30 mins by fluorescence based analysis
[11] = target: Acetylcholinesterase (Electrophorus electricus) (UniProt O42275); test: Reversible inhibition of electric eel AChE assessed as enzyme activity using acetylthiocholine iodide as substrate measured after dilution to 0.1XIC50 for 120 mins by Ellman's method; design: scale not given: the % may be the effect or the level left
Chain of Acetylcholinesterase (Electrophorus electricus) (O42275 24-633 limits assumed): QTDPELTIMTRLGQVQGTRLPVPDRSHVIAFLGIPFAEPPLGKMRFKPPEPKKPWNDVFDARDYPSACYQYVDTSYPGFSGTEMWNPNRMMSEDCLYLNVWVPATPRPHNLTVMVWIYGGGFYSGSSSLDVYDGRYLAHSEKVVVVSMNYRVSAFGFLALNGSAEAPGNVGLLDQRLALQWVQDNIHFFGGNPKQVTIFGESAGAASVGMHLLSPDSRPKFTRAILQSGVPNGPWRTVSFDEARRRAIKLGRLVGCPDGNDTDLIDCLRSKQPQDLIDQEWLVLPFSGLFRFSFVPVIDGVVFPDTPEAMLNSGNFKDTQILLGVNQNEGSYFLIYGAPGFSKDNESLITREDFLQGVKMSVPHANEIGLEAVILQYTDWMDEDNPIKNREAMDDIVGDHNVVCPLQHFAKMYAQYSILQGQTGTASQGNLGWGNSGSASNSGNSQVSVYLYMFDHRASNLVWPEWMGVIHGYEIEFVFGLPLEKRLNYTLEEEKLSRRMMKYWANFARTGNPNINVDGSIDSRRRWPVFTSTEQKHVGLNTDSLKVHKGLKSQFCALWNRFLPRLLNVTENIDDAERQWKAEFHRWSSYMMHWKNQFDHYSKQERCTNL

[12] = target: Cholinesterase (Equus caballus) (UniProt P81908); test: Reversible inhibition of equine serum BuChE assessed as enzyme activity using butyrylthiocholine chloride as substrate measured after dilution to 0.1XIC50 for 240 mins by Ellman's method; assay type: cell-free; design: scale not given: the % may be the effect or the level left
Chain of Cholinesterase (Equus caballus) (P81908 whole entry): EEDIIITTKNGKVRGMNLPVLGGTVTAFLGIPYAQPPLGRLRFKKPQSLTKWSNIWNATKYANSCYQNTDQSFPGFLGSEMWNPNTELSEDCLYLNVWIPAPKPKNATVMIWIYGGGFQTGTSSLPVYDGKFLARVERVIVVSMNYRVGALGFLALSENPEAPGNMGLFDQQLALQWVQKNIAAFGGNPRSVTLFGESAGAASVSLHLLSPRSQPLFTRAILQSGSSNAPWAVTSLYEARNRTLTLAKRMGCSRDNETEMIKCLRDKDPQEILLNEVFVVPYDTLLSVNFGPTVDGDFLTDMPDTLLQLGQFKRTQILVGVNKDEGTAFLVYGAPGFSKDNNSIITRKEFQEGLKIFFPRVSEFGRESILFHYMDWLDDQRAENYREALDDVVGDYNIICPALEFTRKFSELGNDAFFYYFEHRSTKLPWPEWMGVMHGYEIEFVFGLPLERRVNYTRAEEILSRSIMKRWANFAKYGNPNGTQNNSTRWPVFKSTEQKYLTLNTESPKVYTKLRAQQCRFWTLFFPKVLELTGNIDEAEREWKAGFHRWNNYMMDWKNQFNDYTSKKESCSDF

[13] = system: BV-2; test: Anti-inflammatory activity against LPS-stimulated mouse BV-2 cells assessed as inhibition of LPS-induced NO production incubated for 24 hrs in presence of LPS; assay type: functional, cell-based; details: dose 1-9 µM
[14] = system: BV-2; test: Anti-inflammatory activity against LPS-stimulated mouse BV-2 cells assessed as inhibition of LPS-induced IL-1 beta production incubated for 24 hrs in presence of LPS; assay type: functional, cell-based; details: dose 1-9 µM
[15] = Cytotoxicity against mouse BV-2 cells assessed as cell viability at 30 uM by CCK8 assay; assay type: toxicity, cell-based; details: BV-2 cells, read-out: Activity
[16] = system: PC-12; test: Neuroprotective activity against Amyloid beta(25 to 35)-induced cell injury in rat PC12 cells assessed as increase in cell viability pretreated for 2 hrs followed by incubation with Abeta(25 to 35) for 24 hrs by CCK-8 assay; assay type: functional, cell-based; details: dose 5-20 µM, time 26.0 hrs
[17] = target: Amyloid-beta precursor protein (Homo sapiens) (UniProt P05067); test: Inhibition of self-induced Amyloid beta (1 to 42) (unknown origin) aggregation at 25 uM incubated for 24 hrs by thioflavin T-based fluorescence analysis
Chain of Amyloid-beta precursor protein (Homo sapiens) (P05067 whole entry): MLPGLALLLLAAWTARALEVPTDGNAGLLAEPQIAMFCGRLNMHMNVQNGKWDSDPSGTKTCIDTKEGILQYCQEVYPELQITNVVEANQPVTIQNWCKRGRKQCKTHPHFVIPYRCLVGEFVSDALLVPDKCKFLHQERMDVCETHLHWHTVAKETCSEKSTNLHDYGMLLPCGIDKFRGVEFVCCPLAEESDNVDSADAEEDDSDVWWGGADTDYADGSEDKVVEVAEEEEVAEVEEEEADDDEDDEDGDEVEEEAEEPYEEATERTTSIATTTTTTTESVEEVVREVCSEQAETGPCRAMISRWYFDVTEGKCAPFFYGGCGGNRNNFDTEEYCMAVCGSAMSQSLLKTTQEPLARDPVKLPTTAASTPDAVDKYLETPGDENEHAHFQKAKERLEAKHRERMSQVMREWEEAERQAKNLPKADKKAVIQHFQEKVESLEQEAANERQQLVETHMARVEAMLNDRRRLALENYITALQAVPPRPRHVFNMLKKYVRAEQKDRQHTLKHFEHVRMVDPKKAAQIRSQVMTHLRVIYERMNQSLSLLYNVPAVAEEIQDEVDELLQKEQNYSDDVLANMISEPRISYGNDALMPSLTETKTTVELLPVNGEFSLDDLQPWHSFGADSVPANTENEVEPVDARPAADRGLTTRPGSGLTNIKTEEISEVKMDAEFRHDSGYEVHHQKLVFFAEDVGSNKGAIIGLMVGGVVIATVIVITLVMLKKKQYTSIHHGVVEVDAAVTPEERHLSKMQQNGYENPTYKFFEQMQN

[18] = system: BV-2; test: Cytotoxicity against mouse BV-2 cells assessed as reduction in cell viability at 10 uM by CCK8 assay; assay type: toxicity, cell-based; details: bv-2, 10 µM
[19] = system: BV-2; test: Anti-inflammatory activity against LPS-stimulated mouse BV-2 cells assessed as inhibition of LPS-induced IL-6 production incubated for 24 hrs in presence of LPS; assay type: functional, cell-based; details: dose 1-9 µM
[20] = Permeability of the compound at 100 ug/ml incubated for 18 hrs by PAMPA assay; assay type: ADME; details: dose 100 µg/ml, read-out: permeability
[21] = Selectivity index, ratio of IC50 for inhibition of electric eel AChE to IC50 for inhibition of equine serum BuChE
[22] = target: Acetylcholinesterase (Electrophorus electricus, UniProt O42275); test: Inhibition of electric eel AChE using acetylthiocholine chloride as substrate by Ellman's method
Chain of Acetylcholinesterase (O42275 whole entry): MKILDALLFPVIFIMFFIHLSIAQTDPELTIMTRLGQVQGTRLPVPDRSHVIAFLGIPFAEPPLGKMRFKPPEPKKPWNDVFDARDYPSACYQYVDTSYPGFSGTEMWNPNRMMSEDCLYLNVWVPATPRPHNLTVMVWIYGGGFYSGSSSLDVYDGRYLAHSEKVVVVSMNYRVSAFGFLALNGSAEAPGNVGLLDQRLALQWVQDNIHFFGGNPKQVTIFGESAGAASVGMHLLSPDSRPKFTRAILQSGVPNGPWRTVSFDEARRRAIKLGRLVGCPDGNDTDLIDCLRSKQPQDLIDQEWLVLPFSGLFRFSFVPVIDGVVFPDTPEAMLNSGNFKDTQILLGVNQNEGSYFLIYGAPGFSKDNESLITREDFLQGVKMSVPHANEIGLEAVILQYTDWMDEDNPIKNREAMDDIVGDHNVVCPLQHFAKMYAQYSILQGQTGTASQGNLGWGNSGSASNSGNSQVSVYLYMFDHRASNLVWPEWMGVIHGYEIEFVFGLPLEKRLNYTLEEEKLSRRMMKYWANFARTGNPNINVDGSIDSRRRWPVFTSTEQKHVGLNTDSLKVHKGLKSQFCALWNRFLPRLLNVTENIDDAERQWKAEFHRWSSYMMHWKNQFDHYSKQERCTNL

[23] = target: Cholinesterase (Equus caballus, UniProt P81908); test: Inhibition of equine serum BuChE using butyrylthiocholine chloride as substrate by Ellman's method; assay type: cell-free
Chain of Cholinesterase (P81908 whole entry): as the sequence (P81908 whole entry) above

Q: What does the source list for `COc1cc(/C=C/C(=O)CC(=O)/C=C/c2ccc(O)c(OC)c2)ccc1O` [CURCUMIN]?
A: viability at 20 µM [1]: 85.5%; Activity [2]: Non-Toxic; Activity [3]: Active; inhibition [4]: 53.5%; viability at 5 µM [5]: 62.5%; viability at 10 µM [6]: 76.3%

Q: Which results are given for `O=C(/C=C/c1cc2ccccc2c2ccccc12)c1ccccc1O`?
A: inhibition at 62.5 µM [7]: < 15%; IC50 [8]: 76.8 µM

Q: What does the source list for `O=C(/C=C/c1ccc(Cl)cc1)c1ccccc1O`?
A: Ratio IC50 [9]: 7.7; IC50 [10]: 78.8 µM; IC50 [8]: 10.3 µM

Q: What does the source list for `O=C(/C=C/c1ccc(Br)cc1OC(F)(F)F)c1ccccc1O`?
A: Ratio IC50 [9]: 22.9; IC50 [10]: 59.3 µM; IC50 [8]: 2.6 µM

Q: What does the source list for `O=C(/C=C/c1ccc2ccccc2c1Br)c1ccccc1O`?
A: inhibition at 62.5 µM [7]: < 15%; IC50 [8]: 2.8 µM

Q: What does the source list for `O=C(/C=C/c1c(Br)cccc1Br)c1ccccc1O`?
A: inhibition at 62.5 µM [7]: < 15%; IC50 [8]: 60.3 µM

Q: Which Activity [11] does the source give for `CCN(C)C(=O)Oc1cccc([C@H](C)N(C)C)c1` here?
A: 94.7%

Q: And the Activity [12]?
A: 81.2%

Q: Which results are given for `COc1ccc(/C=C/C(=O)c2ccccc2O)cc1`?
A: Activity [2]: Non-Toxic; Activity [13]: Dose-Dependent Effect; Activity [14]: Dose-Dependent Effect; viability at 30 µM [15]: 78.9%; Ratio IC50 [9]: 40.9; IC50 [10]: 53.2 µM; Activity [16]: Dose-Dependent Effect; inhibition [17]: 61.1%; IC50 [8]: 1.3 µM; Activity [18]: Non-Toxic; Activity [19]: Dose-Dependent Effect

Q: Which results are given for `COc1ccccc1/C=C/C(=O)c1ccccc1O`?
A: inhibition at 62.5 µM [7]: < 15%; IC50 [8]: 5.9 µM

Q: With `COc1ccc(Br)cc1/C=C/C(=O)c1ccccc1O` as the compound, how does the inhibition at 62.5 µM [7] read?
A: < 15%

Q: What about the IC50 [8] of the same compound?
A: 27.5 µM

Q: For `O=C(/C=C/c1c(F)cccc1Br)c1ccccc1O`, which inhibition at 62.5 µM [7] is on record?
A: < 15%

Q: What about the IC50 [8] of the same compound?
A: 4.7 µM

Q: Which Ratio IC50 [9] does the source give for `COc1cccc(/C=C/C(=O)c2ccccc2O)c1` here?
A: 10.5

Q: And the IC50 [10]?
A: 35.7 µM

Q: And the IC50 [8]?
A: 3.4 µM

Q: Which Papp at 18 h, 100 ug/ml [20] does the source give for `CCn1cc(C(=O)O)c(=O)c2cc(F)c(N3CCNCC3)cc21` [NORFLOXACIN] here?
A: 0.21 ×10⁻⁶ cm/s

Q: What does the source list for `COc1ccc2cc(/C=C/C(=O)c3ccccc3O)ccc2c1`?
A: inhibition at 62.5 µM [7]: < 15%; IC50 [8]: 78.4 µM

Q: Which results are given for `CCN(CC)C(=O)Oc1ccccc1C(=O)/C=C/c1ccc(F)cc1`?
A: Activity [2]: Non-Toxic; Activity [13]: Dose-Dependent Effect; Activity [14]: Dose-Dependent Effect; Ratio IC50 [21]: 0.59; Ratio IC50 [9]: 24.9; IC50 [10]: 52.3 µM; IC50 [22]: 11.2 µM; Activity [16]: Dose-Dependent Effect; IC50 [8]: 2.1 µM; IC50 [23]: 18.9 µM; Activity [18]: Non-Toxic; Activity [19]: Dose-Dependent Effect

Q: Which Activity [2] does the source give for `CN(C)C(=O)Oc1ccccc1C(=O)/C=C/c1ccc(F)cc1` here?
A: Non-Toxic

Q: What about the Activity [13] of the same compound?
A: Dose-Dependent Effect

Q: What about the Activity [14] of the same compound?
A: Dose-Dependent Effect

Q: What about the Ratio IC50 [21] of the same compound?
A: 1.4

Q: What about the Ratio IC50 [9] of the same compound?
A: 11.7

Q: And the IC50 [10]?
A: 31.5 µM

Q: And the IC50 [22]?
A: 8.7 µM

Q: And the Activity [16]?
A: Dose-Dependent Effect

Q: And the IC50 [8]?
A: 2.7 µM

Q: What about the IC50 [23] of the same compound?
A: 6.3 µM

Q: And the Activity [18]?
A: Non-Toxic

Q: What about the Activity [19] of the same compound?
A: Dose-Dependent Effect

Q: Which inhibition at 62.5 µM [7] does the source give for `O=C(/C=C/c1ccccc1F)c1ccccc1O` here?
A: < 15%

Q: What about the IC50 [8] of the same compound?
A: 12.6 µM

Q: For `O=C(/C=C/c1cccc(O)c1)c1ccccc1O`, which Ratio IC50 [9] is on record?
A: 29.9

Q: What about the IC50 [10] of the same compound?
A: 50.9 µM

Q: And the IC50 [8]?
A: 1.7 µM

Reference: ChEMBL document CHEMBL5346920, “Development of the "hidden" multi-target-directed ligands by AChE/BuChE for the treatment of Alzheimer's disease” (Eur J Med Chem, 2023)
